This is an account of results in patent US10000773B2, “Cytochrome P450 and use thereof for the enzymatic oxidation of terpenes” (FIRMENICH SA, priority 2011, dated 2018).

Series [1] relates to vetiver P450s. The series can be described thus: Bioconversion of other monoterpene and sesquiterpene molecules using whole E. coli cells expressing the vetiver P450s and CPR. The class given is cell-based, Vetiveria zizanioides (L.) Nash. To be noted: resting E. coli cells in potassium phosphate buffer as in Example 8. The procedure:
The cells were harvested in exponential growing phase, centrifuged and resuspended in 0.5 volume of potassium phosphate buffer 50 mM pH 7.0 supplemented with 5% glycerol or 3% glucose. The substrate ((+)-zizaene) was added to a final concentration of 0.5 mg/ml as mixture composed of 10 mg Tween® 20 (sigma-Aldrich), 10 mg antifoam (Erol DF, PMC Ouvrie, Lesquin, France), 20 mg (+)-zizaene and 1 ml water. The conversion was allowed to proceed for 24 hours at 20° C. with moderate shaking. The media were extracted with 2 volumes of ethyl-acetate and the extracts were analyzed by GCMS on an Agilent 6890 Series GC system connected to an Agilent 5975 mass detector. The GC was equipped with 0.25 mm inner diameter by 30 m SPB-1 capillary column (Supelco, Bellefonte, Pa.). The carrier gas was He at a constant flow of 1 mL/min. The initial oven temperature was 50° C. (1 min hold) followed by a gradient of 10° C./min to 300° C. The identification of the products was based on the comparison of the mass spectra and retention indices with authentic standards and internal databases.
E. coli cells expressing the vetiver P450s and a CPR were prepared, grown and the bioconversions performed using resting cells in potassium phosphate buffer as described in Example 8.
Assays were performed with several terpene molecules and the formation of oxygenated terpene molecules was evaluated using GCMS analysis as described in Example 8.

The test system of series [2] is VzP521-11-1. The experiment in a line: Bioconversion of (+)-zizaene using whole E. coli cells expressing VzP521-11-1 and a CPR. To be noted: 24 hours at 20° C. The class given is cell-based, Vetiveria zizanioides (L.) Nash. The procedure:
(§1) The oxidation of (+)-zizaene can be performed using whole E. coli cells expressing the vetiver P450s and a CPR (bioconversion). Zizaene was prepared using engineered E. coli cells following the method described in the patent WO 2010/134004 and using the sesquiterpene synthase with the sequence accession number HI931369.
(§2) E. coli cells (BL21Star™(DE3) E. coli cells (Invitrogen Ltd) or JM109(DE3) (Promega)) were transformed with the plasmids pCW-2391-521-11 or pCW-2392-521-16 or cells were co-transformed with the plasmids pCW-218-521-11 or pCW-218-521-16 and pACYC-tcATR1-opt and were grown in TB medium supplemented with 3% glycerol or LB medium supplemented with 1% glucose. The cultures were incubated at 37° C. until reaching an optical density of 1. The cultures were then transferred to 28° C., 1 mM IPTG and 74 μg/ml δ-aminolevulinic acid were added and the culture were incubated for 24 hours.
(§3) The cells were harvested in exponential growing phase, centrifuged and resuspended in 0.5 volume of potassium phosphate buffer 50 mM pH 7.0 supplemented with 5% glycerol or 3% glucose. […] The media were extracted with 2 volumes of ethyl-acetate and the extracts were analyzed by GCMS on an Agilent 6890 Series GC system connected to an Agilent 5975 mass detector. […]

For series [3], the system named is heterologous P450 and CPR complex. It is filed as cell-based, E. coli. The protocol:
The oxidized products of (+)-zizaene can also be produced in E. coli cells engineered to produce sesquiterpenes from a carbon source such as glucose or glycerol. Plasmids were prepared consisting of the pCWori (Barnes H. J (1996) Method Enzymol. 272, 3-14) plasmid containing an operon composed of the P450, the P450-reductase and the terpene synthase. Two plasmids were thus prepared by inserting an RBS sequence and the optimized sequence encoding for the (+)-zizaene synthase (VzZS) after the stop codon of the CPR sequence in the pCW-2391-521-11 or pCW-2392-521-16.
The VzZS was amplified from pETDuet-VzZS-opt plasmid (as described in WO 2010/134004) using the primers 2401-VzZS-F (SEQ ID NO:33) and 2401-VzZS-R (SEQ ID NO:34). […]
OverExpress™ C43(DE3) E. coli cells (Lucigen® Corporation) were co-transformed with the plasmid pACYC-29258-4506 and the plasmid pCW-2401-521-11 or the plasmid pCW-2402-521-16. […] After 48 hours, the cultures were extracted with 2 volumes of tert-Butyl methyl ether (MTBE) and the extracts analyzed by GCMS as described in Example 8, except for the oven temperature that was initially set at 80° C. with one minute hold, followed by gradient of 10° C./min to 300° C.

The subject of series [4] is VzP521-16-1. The series can be described thus: Bioconversion of (+)-zizaene using whole E. coli cells expressing VzP521-16-1 and a CPR. The class given is cell-based, Vetiveria zizanioides (L.) Nash. The note with it: 24 hours at 20° C. The protocol: as §1, §2, §3

On to `C=C(C)C1CC=C(C)CC1` (single isomer, unassigned; (+)) [(+)-limonene], for which, in series [1], the “bioconversion, formation of oxygenated terpene molecules (GCMS)” value (shortened to “bioconversion, formation”) is listed as “bioconversion was observed”.

As for `C=C1[C@H]2CC[C@H](C)[C@@]23CC[C@@H](C3)C1(C)C` [(+)-zizaene], the “oxidation products identified by GCMS” value in series [2] was “khusimol, zizanal and zizanoic acid”; in series [4], “khusimol, zizanal and zizanoic acid”. Also, the “oxidation of substrate (GCMS)” value in series [2] (substrate 0.5 mg/ml) and in series [4] (substrate 0.5 mg/ml) was “oxidation of (+)-zizaene was observed” in each case. Moreover, the “oxidation of the sesquiterpene produced in the engineered cells (GCMS)” value in series [3] is “is oxidized by the heterologous P450 and CPR complex”. In series [1], the “bioconversion, formation” value is “bioconversion was observed”.

On to `C=C1CC[C@@H]2[C@H]([C@@H]3[C@H](C)CC[C@H]13)C2(C)C` [alloaromadendrene], for which the “bioconversion, formation” value in series [1] was “bioconversion was observed”.

For `CC1=CC[C@@]23C[C@@H]1C(C)(C)[C@@H]2CC[C@H]3C` [alpha-cedrene], in series [1], the “bioconversion, formation” value was “bioconversion was observed”.

On to `CC1=CC[C@H]2[C@H]3[C@@H]1[C@]2(C)CC[C@H]3C(C)C` [alpha-copaene], for which, in series [1], the “bioconversion, formation” value is “bioconversion was observed”.

As for `CC1=CC[C@]23C[C@H]1C(C)(C)[C@@H]2CC[C@H]3C` [alpha-funebrene], the “bioconversion, formation” value in series [1] is reported as “bioconversion was observed”.

As to `C/C1=C\CC/C(C)=C/CC(C)(C)/C=C/C1` [alpha-humulene], the “bioconversion, formation” value in series [1] was “bioconversion was observed”.

Consider `CC1=CC[C@@H]2[C@@H]3[C@H]1[C@@]2(C)CCCC3(C)C` [alpha-longipinene], for which, in series [1], the “bioconversion, formation” value is reported as “bioconversion was observed”.

As for `CC1=CCC2CC1C2(C)C` (stereo not drawn) [alpha-pinene], in series [1], the “bioconversion, formation” value is “bioconversion was observed”.

Consider `C=C1CCCC(C)(C)[C@@]12CC=C(C)CC2` [beta-chamigrene], for which, in series [1], the “bioconversion, formation” value is given as “bioconversion was observed”.

As to `C=C1CC[C@@]23C[C@@H]1C(C)(C)[C@@H]2CC[C@H]3C` [beta-funebrene], the “bioconversion, formation” value in series [1] is on record as “bioconversion was observed”.

For the molecule `C=C1CCC2CC1C2(C)C` (stereo not drawn) [beta-pinene], in series [1], the “bioconversion, formation” value was “bioconversion was observed”.

In the case of `C=C(C)[C@H]1C=C2[C@H](C)CC[C@@H]2[C@H](C)CC1` [gamma-gurjunene], in series [1], the “bioconversion, formation” value is “bioconversion was observed”.

With `C=C1[C@H]2C[C@H]3[C@@H](C(C)C)CC[C@]1(C)[C@H]3C2` [isosativene], the “bioconversion, formation” value in series [1] is on record as “bioconversion was observed”.

As for `CC1=C2CC[C@@H](C)[C@H]2[C@H]2[C@@H](CC1)C2(C)C` [ledene], the “bioconversion, formation” value in series [1] was “bioconversion was observed”.

With `CC1=CC[C@]2(C)CCCC(C)(C)[C@@]23C[C@@H]13` [thujopsene], the “bioconversion, formation” value in series [1] is “bioconversion was observed”.

As for `C=C(C)[C@@H]1CCC2=CCC[C@@H](C)[C@]2(C)C1` [valencene], the “bioconversion, formation” value in series [1] was “bioconversion was observed”.

As for (−)-limonene, in series [1], the “bioconversion, formation” value is “bioconversion was observed”.

On to alpha gurjunene, for which the “bioconversion, formation” value in series [1] is on record as “bioconversion was observed”.

On to alpha neoclovenene, for which the “bioconversion, formation” value in series [1] is “bioconversion was observed”.
